Measured values from article PMC6863825, “Modulating multi-functional ERK complexes by covalent targeting of a recruitment site in vivo” (Nature Communications, 2019).

Molecular target: T1, ERK2 (Rattus norvegicus, UniProt P63086)
T1 construct: gene Mapk1; full-length ERK2
Assay: fluorescence anisotropy displacement of FITC D-site peptide; also protein NMR, intact MS, kinact/Ki
Format: binding

T1 sequence (P63086 2-358): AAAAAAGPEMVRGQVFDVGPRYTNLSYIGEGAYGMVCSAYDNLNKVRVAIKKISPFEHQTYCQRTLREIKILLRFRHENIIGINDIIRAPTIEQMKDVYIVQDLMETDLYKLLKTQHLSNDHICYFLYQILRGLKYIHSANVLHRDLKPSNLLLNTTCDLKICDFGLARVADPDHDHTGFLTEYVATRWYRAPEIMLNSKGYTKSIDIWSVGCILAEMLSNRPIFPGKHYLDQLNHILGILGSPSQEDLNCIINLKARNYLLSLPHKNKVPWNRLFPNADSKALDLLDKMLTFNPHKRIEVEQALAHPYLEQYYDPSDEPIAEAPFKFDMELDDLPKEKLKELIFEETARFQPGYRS

Ki: 800 ± 200 nM
SMILES: O=[N+]([O-])c1cnc(Sc2nnc(O)n2-c2ccc3c(c2)OCCO3)s1 [compound 1, BI-78D3]
